According to patent US20240148821A1, “PHARMACEUTICAL USE OF CYCLIC PEPTIDE COMPOUND” (CHUGAI SEIYAKU KABUSHIKI KAISHA, priority 2021, published 2024):
Numbered stars: 1 amine (or outer) side, 2 acyl side, 3 side chain; on linkers, the order of the positions; unused ones are H or OH. Bridge positions count the residues as written; N and C are the ends. Square brackets hold non-standard residues; d marks the D form. Peptide text beside a SMILES is read from it. * marks the point of attachment. hPhe(3,5-F2-4-CF3) = N[C@@H](CCc1cc(F)c(C(F)(F)F)c(F)c1)C(=O)O; hPhe(3-Cl-4-CF3) = N[C@@H](CCc1ccc(C(F)(F)F)c(Cl)c1)C(=O)O; hPhe(3-F,4-CF3) = N[C@@H](CCc1ccc(C(F)(F)F)c(F)c1)C(=O)O; NEtPhe(4-Me) = CCN[C@@H](Cc1ccc(C)cc1)C(=O)O; hPhe(4-Cl) = N[C@@H](CCc1ccc(Cl)cc1)C(=O)O; NMedβ3hAla = C[C@H](CC(=O)[*:2])N(C)[*:1]; NMeAla(cPent) = CN[C@@H](CC1CCCC1)C(=O)O; NMeGly(cPent) = CN[C@H](C(=O)O)C1CCCC1; Phe(3-I) = N[C@@H](Cc1cccc(I)c1)C(=O)O; NMeCha = CN[C@@H](CC1CCCCC1)C(=O)O; Hyp = O=C(O)[C@@H]1C[C@@H](O)CN1; NMeI = CC[C@H](C)[C@H](NC)C(=O)O; N(CH2CH2)2CF2 = FC1(F)CCN(*)CC1; NMeD = CN[C@@H](CC(=O)O)C(=O)O; NMeL = CN[C@@H](CC(C)C)C(=O)O; NMeV = CN[C@H](C(=O)O)C(C)C; d(β3hA) = C[C@@H](N)CC(=O)O; NMeAbu = CC[C@H](NC)C(=O)O; NMeC = CN[C@@H](CS)C(=O)O; NMeS = CN[C@@H](CO)C(=O)O; Pip = O=C(O)[C@@H]1CCCCN1; NMeA = CN[C@@H](C)C(=O)O; NMeAib = CNC(C)(C)C(=O)O; Nle = CCCC[C@H](N)C(=O)O; Piperidide = C1CCN(*)CC1; Pra = C#CC[C@H](N)C(=O)O; Ac5c = NC1(C(=O)O)CCCC1; Aze = O=C(O)[C@@H]1CCN1; Aib = CC(C)(N)C(=O)O; Sar = CNCC(=O)O; Propyl = CCC*

Experiments:
[1] = molecular target: protein-protein interaction between Kras and SOS1 (biotin-tagged human Kras loaded with GDP, His-tagged human SOS1) (Homo sapiens (Human), UniProt P01116, G12D); assay: Protein-protein interaction inhibition between Kras and SOS1 (KrasG12D-SOS PPI) using AlphaScreen; assay type: biochemical; conditions: AlphaScreen; biotin-tagged human Kras loaded with GDP, His-tagged human SOS1; read-out: KRAS G12D-SOS PPI IC50;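 note: kras produced in E. coli, Ni-coupled donor beads and streptavidin acceptor beads, excitation 680 nm with emission detected at 520–620 nm via singlet oxygen transfer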
[2] = test system: Human pancreatic cancer cell line AsPC-1 (G12D mutation Kras); assay: AsPC-1 cell growth inhibition (AsPC-1 CGI); assay type: cell-based; conditions: read-out: AsPC-1 cell growth inhibition, 50% growth inhibitory concentration (IC50 value); 96 hours, CellTiter-Glo, values classified in ranges
Experimental: Test compounds were serially dilated with dimethyl sulfoxide, and 200 nL was then dispensed to a U-bottom 96-well plate using Labcyte Echo. […] The cell suspension was dispensed to a. plate containing a test compound at 100 μL per well and incubated at 37° C. in a 5% carbon dioxide gas incubator. 96 hours later, 80 μL of CellTiter-Glo (Promega) was added to each well and fluorescence was measured.

SMILES | IC50 [1] [nM] | IC50 [2] [nM]
CC[C@H](C)[C@@H]1NC(=O)[C@H](CC(C)C)N(C)C(=O)C[C@@H](C(=O)N2CCCCC2)N(C)C(=O)[C@H](C(C)C)N(C)C(=O)C2(CCCC2)NC(=O)[C@@H]2CCCN2C(=O)[C@H](CCc2ccc(C(F)(F)F)c(Cl)c2)NC(=O)CN(C)C(=O)[C@H](C)N(C)C(=O)[C@@H]2CCN2C(=O)[C@H](C)N(C)C1=O [Compound 1674] ([NMeL]I[NMeA][Aze][NMeA][Sar][hPhe(3-Cl-4-CF3)]P[Ac5c][NMeV][NMeD]-Piperidide; lactam N-11) | 58 | > 500
CC[C@H](C)[C@@H]1NC(=O)[C@H](CC(C)C)N(C)C(=O)CSC[C@@H](C(=O)N(C)C)N(C)C(=O)[C@H](C2CCCC2)N(C)C(=O)C2(CCCC2)NC(=O)[C@@H]2CCCN2C(=O)[C@H](CCc2ccc(C(F)(F)F)c(Cl)c2)NC(=O)CN(C)C(=O)[C@H](CC2CCCCC2)N(C)C(=O)CN(C)C(=O)CN(C)C1=O [Compound 2175] ({CH2CO}-[NMeL]I[Sar][Sar][NMeCha][Sar][hPhe(3-Cl-4-CF3)]P[Ac5c][NMeGly(cPent)][NMeC]-NMe2; thioether N-11) | 180 | > 500
CCCC[C@@H]1NC(=O)[C@H](Cc2cccc(I)c2)NC(=O)CN(C)C(=O)[C@H](CC2CCCC2)N(C)C(=O)[C@@H]2CCN2C(=O)[C@H](C)N(C)C(=O)[C@H]([C@@H](C)CC)NC(=O)[C@@H]2CCCCN2C(=O)C[C@@H](C(=O)N2CCCCC2)N(C)C(=O)[C@H](CC(C)C)NC(=O)C(C)(C)N(C)C1=O [Compound 1424] ([Pip]I[NMeA][Aze][NMeAla(cPent)][Sar][Phe(3-I)][Nle][NMeAib]L[NMeD]-Piperidide; lactam N-11) | 200 | > 500
CC[C@H](C)[C@@H]1NC(=O)[C@H](CC(C)C)N(C)C(=O)C[C@@H](C(=O)N2CCCCC2)N(C)C(=O)[C@H](C(C)C)N(C)C(=O)C2(CCCC2)NC(=O)[C@@H]2CCCN2C(=O)[C@H](CCc2ccc(C(F)(F)F)c(Cl)c2)NC(=O)CN(C)C(=O)[C@H](CC)N(C)C(=O)[C@@H]2CCN2C(=O)[C@H](C)N(C)C1=O [Compound 1752] ([NMeL]I[NMeA][Aze][NMeAbu][Sar][hPhe(3-Cl-4-CF3)]P[Ac5c][NMeV][NMeD]-Piperidide; lactam N-11) | 17 | > 500
CCCOC[C@H]1C(=O)N(C)CC(=O)N[C@@H](CCc2ccc(C(F)(F)F)c(F)c2)C(=O)N2CCC[C@H]2C(=O)NC2(CCCC2)C(=O)N(C)[C@@H]([C@@H](C)CC)C(=O)N(C)[C@H](C(=O)N(C)C)CC(=O)N(C)[C@@H](CC(C)C)C(=O)N[C@@H]([C@@H](C)CC)C(=O)N(C)[C@@H](C)C(=O)N2CC[C@H]2C(=O)N1C [Compound 316] ([NMeL]I[NMeA][Aze][NMeS](Propyl)[Sar][hPhe(3-F,4-CF3)]P[Ac5c][NMeI][NMeD]-NMe2; lactam N-11) | 3.3 | ≤ 20
CC[C@H](C)[C@@H]1NC(=O)[C@H](CC(C)C)N(C)C(=O)C[C@@H](C(=O)N2CCCCC2)N(C)C(=O)[C@H](C(C)C)N(C)C(=O)C2(CCCC2)NC(=O)[C@H](CC(=O)N2CCC(F)(F)CC2)N(C)C(=O)[C@H](CCc2ccc(Cl)cc2)NC(=O)CN(C)C(=O)[C@H](CC2CCCCC2)N(C)C(=O)CN(C)C(=O)CN(C)C1=O [Compound 177] ([NMeL]I[Sar][Sar][NMeCha][Sar][hPhe(4-Cl)][NMeD](N(CH2CH2)2CF2)[Ac5c][NMeV][NMeD]-Piperidide; lactam N-11) | 45 | > 500
C#CC[C@@H]1NC(=O)[C@H](CC(C)C)N(C)C(=O)C[C@@H](C)NC(=O)[C@H](CC(C)C)N(C)C(=O)C(C)(C)NC(=O)[C@H](CC(C)C)N(C)C(=O)[C@H](CCc2ccc(C(F)(F)F)c(F)c2)NC(=O)CN(C)C(=O)[C@H](CC2CCCCC2)N(C)C(=O)CN(C)C(=O)CN(C)C1=O [Compound 1474] (cyclo([Aib][NMeL][d(β3hA)][NMeL][Pra][Sar][Sar][NMeCha][Sar][hPhe(3-F,4-CF3)][NMeL])) | 240 | > 500
CCCOC[C@@H]1NC(=O)[C@H](CC(C)C)N(C)C(=O)C[C@@H](C(=O)N2CCCCC2)N(C)C(=O)[C@H](C(C)C)N(C)C(=O)C2(CCCC2)NC(=O)[C@@H]2CCCN2C(=O)[C@H](CCc2ccc(C(F)(F)F)c(Cl)c2)NC(=O)CN(C)C(=O)[C@H](CC2CCCCC2)N(C)C(=O)[C@@H]2CCN2C(=O)[C@H](C)N(C)C1=O [Compound 1831] ([NMeL]S(Propyl)[NMeA][Aze][NMeCha][Sar][hPhe(3-Cl-4-CF3)]P[Ac5c][NMeV][NMeD]-Piperidide; lactam N-11) | 71 | > 500
CCO[C@@H]1C[C@H]2C(=O)NC3(CCCC3)C(=O)N(C)[C@@H](C3CCCC3)C(=O)N(C)[C@H](C)CC(=O)N(C)[C@@H](CC(C)C)C(=O)N[C@@H]([C@@H](C)CC)C(=O)N(C)[C@@H](C)C(=O)N3CC[C@H]3C(=O)N(CC)[C@@H](Cc3ccc(C)cc3)C(=O)N(C)CC(=O)N[C@@H](CCc3cc(F)c(C(F)(F)F)c(F)c3)C(=O)N2C1 [Compound 432] (cyclo([Ac5c][NMeGly(cPent)][NMedβ3hAla][NMeL]I[NMeA][Aze][NEtPhe(4-Me)][Sar][hPhe(3,5-F2-4-CF3)][Hyp](Et))) | 4.5 | ≤ 20
